Measured values as given in ChEMBL document CHEMBL1128880, “Design and synthesis of heterocyclic analogues of mycophenolic acid as potential chemotherapeutic agents” (Bioorg Med Chem Lett, 1995).
pIC50: −log10 of the molar value.

Experiments:
A549 = test: In vitro antitumor activity against A549 human NSCLC lung carcinoma cells; type: functional, cell-based
HT-29 = test: In vitro antitumor activity against HT-29 human colon adenocarcinoma cells; type: functional, cell-based
L1210 = test: In vitro antitumor activity against L1210 murine lymphocytic leukemia cells; type: functional, cell-based; settings: Mus musculus
MCF7 = test: In vitro antitumor activity against MCF-7 human breast adenocarcinoma cells; type: functional, cell-based
PSN1 = test: In vitro antitumor activity against PSN-1 human pancreatic carcinoma cells; type: functional, cell-based
CCRF-CEM [1] = test: Cytotoxic activity against HIV infected T4 lymphocytes (CEM cell line); type: functional, cell-based; settings: Homo sapiens
CCRF-CEM [2] = test: Antitumor activity against HIV infected T4 lymphocytes (CEM cell line) at 0.4 uM concentration; type: functional, Homo sapiens
CCRF-CEM [3] = test: Cytotoxic activity against HIV uninfected T4 lymphocytes (CEM cell line); type: functional, cell-based; settings: Homo sapiens

What does the source list for `C/C(=C\Cc1ccc(C(N)=O)[nH]1)CCC(=O)O`?
pIC50 (A549): < 4.00; pIC50 (HT-29): < 4.00; pIC50 (L1210): < 4.00; pIC50 (MCF7): < 4.00; pIC50 (PSN1): < 4.00; pIC50 (CCRF-CEM [1]): 3.14

`C/C(=C\Cc1nc(C(N)=O)cs1)CCC(=O)O` was tested. Which pIC50 (A549) did it give?
Its pIC50 is < 4.00.

And the pIC50 (HT-29)?
The pIC50 was < 4.00.

And the pIC50 (L1210)?
Its pIC50 is < 4.00.

What about the pIC50 (MCF7) of the same compound?
Its pIC50 is < 4.00.

What about the pIC50 (PSN1) of the same compound?
Its pIC50 is < 4.00.

How did the pIC50 (A549) turn out when `C/C(=C\Cn1cnc2c(O)ncnc21)CCC(=O)O` was run?
The pIC50 was < 4.00.

And the pIC50 (HT-29)?
Its pIC50 is < 4.00.

What about the pIC50 (L1210) of the same compound?
The pIC50 was < 4.00.

What about the pIC50 (MCF7) of the same compound?
The pIC50 was < 4.00.

And the pIC50 (PSN1)?
The pIC50 was < 4.00.

Which results are given for `C/C(=C\Cn1cnc2c(Cl)ncnc21)CCC(=O)O`?
pIC50 (A549): < 4.00; pIC50 (HT-29): < 4.00; pIC50 (L1210): < 4.00; pIC50 (MCF7): < 4.00; pIC50 (PSN1): < 4.00

With `C/C(=C\Cn1cnc(C(N)=O)n1)CCC(=O)O` as the compound, how does the pIC50 (A549) read?
The pIC50 was < 4.00.

What about the pIC50 (HT-29) of the same compound?
Its pIC50 is < 4.00.

What about the pIC50 (L1210) of the same compound?
Its pIC50 is < 4.00.

What about the pIC50 (MCF7) of the same compound?
Its pIC50 is < 4.00.

What about the pIC50 (PSN1) of the same compound?
The pIC50 was < 4.00.

What does the source list for `COC(=O)c1ccc(C/C=C(\C)CCC(=O)O)[nH]1`?
pIC50 (A549): < 4.00; pIC50 (HT-29): < 4.00; pIC50 (L1210): < 4.00; pIC50 (MCF7): < 4.00; pIC50 (PSN1): < 4.00; pIC50 (CCRF-CEM [1]): 3.44

Which results are given for `C/C(=C\Cn1cnc(C(=O)O)n1)CCC(=O)O`?
pIC50 (A549): < 4.00; pIC50 (HT-29): < 4.00; pIC50 (L1210): < 4.00; pIC50 (MCF7): < 4.00; pIC50 (PSN1): < 4.00

`C/C(=C\Cc1cccc(C(N)=O)n1)CCC(=O)O` was tested. Which pIC50 (A549) did it give?
Its pIC50 is < 4.00.

What about the pIC50 (HT-29) of the same compound?
Its pIC50 is < 4.00.

And the pIC50 (L1210)?
The pIC50 was < 4.00.

And the pIC50 (MCF7)?
The pIC50 was < 4.00.

What about the pIC50 (PSN1) of the same compound?
The pIC50 was < 4.00.

`COc1c(C)c2c(c(O)c1C/C=C(\C)CCC(=O)O)C(=O)OC2` [MYCOPHENOLIC ACID] was tested. Which pIC50 (A549) did it give?
The pIC50 was 6.40.

And the Protection (CCRF-CEM [2])?
The Protection was 20%.

And the pIC50 (CCRF-CEM [3])?
The pIC50 was 6.05.

What about the pIC50 (HT-29) of the same compound?
The pIC50 was 6.05.

And the pIC50 (L1210)?
The pIC50 was > 6.70.

What about the pIC50 (MCF7) of the same compound?
Its pIC50 is 6.30.

What about the pIC50 (PSN1) of the same compound?
Its pIC50 is 6.15.
